Reference: PMC4102417 (PLoS Neglected Tropical Diseases, 2014)
“Also recorded” adds a separate entry of the source. Where two headings read alike, the source gives them in different places.

What was measured:
[1] = system: T. cruzi (Tulahuen strain); test: microbe, parasite or virus in culture; type: cell-based, Trypanosoma cruzi; conditions: for activity at 10 µM: Table S2, read-out: T. cruzi % growth @ 10 uM (Amastigotes); for EC50: read-out: T. cruzi EC50
In short: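 Tulahuen parasites expressing beta-galactosidase were added (1×10^4 trypomastigotes/well) to 3T3 fibroblasts plated 24 h earlier, 4 h before compound (10 µM final).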

in vitro = type: cell-based, murine; conditions: mouse
3T3 fibroblast cells = test: cells; type: cell-based, murine; conditions: for activity at 10 µM: Mus musculus, NIH3T3, 72 h, Table S2, read-out: Mammalian (3T3) cell % growth at 10 uM
T. brucei = conditions: cited from earlier work
[2] = system: T. cruzi (Tulahuen strain); test: Mouse model of acute T. cruzi infection; type: in vivo, BALB/c mice; conditions: oral gavage days 7-11 post-infection, doses of Table 5
Method: Age 8–10 week-old BALB/c female mice were obtained from Harlan Laboratories. Mice were infected with 1×10^4 tissue culture derived wild-type trypomastigotes of the Tulahuen strain by subcutaneous injection on day 0. They were administered test drugs in groups of five by oral gavage on days 7–11. All drugs were dissolved in vehicle composed of sodium carboxymethylcellulose 0.5% w/v, benzyl alcohol 0.5% v/v, Tween 80 0.4% v/v diluted in 0.9% aqueous NaCl solution. Parasitemia was quantified by examining tail blood specimens at times points indicated in Figures 2, 3, S4, and S5 as previously described.
Selected drugs identified in the above screens were tested alone or in combination in the mouse model of T. cruzi infection. In the first experiment, we focused on posaconazole and benznidazole because of their advanced clinical status for treating Chagas disease. Since benznidazole and posaconazole are known to have curative activity as monotherapies, we used sub-curative doses so that additive or synergistic interactions could be detected when used in combinations. The other drugs were administered at doses described in the literature for treating mice. Briefly, mice were gavaged once or twice daily with a given drug or combination on days 7–11 post-infection. We conducted a second experiment (Figure 3) examining the same drugs with the purpose of confirming and expanding upon the initial results shown in Figure 2.

T. cruzi amastigotes = test: Combination screen of drug pairs at EC25; type: cell-based, Trypanosoma cruzi; conditions: at EC25, alone or in combination
Method: […] compounds were selected for testing in combinations. All two-way combinations were tested (300 experiments). First, EC25 concentrations were determined for the individual compounds against T. cruzi amastigotes as described above. To test for synergy, compounds were evaluated in quadruplicate individually at the experimentally determined EC25, and in combination with other compounds at each respective EC25 concentration (further explained in the Discussion section). For inclusion in downstream analysis, each individual compound in a pair was required to inhibit 25±10% of growth in positive control (untreated) wells. If not in this range, the experiment was repeated. The measured growth of T. cruzi amastigotes was compared to the predicted effect of the combination as follows. Assuming a simple additive effect, the predicted inhibition of the drug pairs was expected to be the product of the percent-growths of each compound when tested alone. For example, if compound A gave 75% growth of the control and compound B gave 80% of the control growth, then the combination would be predicted to be 60% (i.e., 75%×80% = 60%).
Cells in green indicate a greater effect than predicted (“synergism”) and the squares in red indicate a lesser effect than predicated (“antagonism”).

[3] = Trypanosoma cruzi, TULAHUEN, Fibroblast, 120 h
[4] = Trypanosoma cruzi, TULAHUEN, Fibroblast, 120 h, intracellular amastigotes, 5 days, separate assays separated by semicolons
[5] = average mammalian cell CC50 divided by average T. cruzi EC50
[6] = 3T3 fibroblasts, 72 hours, separate assays separated by semicolons, read-out: Mammalian cell CC50
[7] = intracellular amastigotes, 5 days, separate assays separated by semicolons

Row | Structure (SMILES) | activity at 10 µM [1, 3] [%] | EC50 [1, 4] [µM] | Selectivity index [1, 5] | CC50 (in vitro; [6]) [nM] | activity at 10 µM (3T3 fibroblast cells) [%] | parasitemia [2] | Selectivity index [1] | also measured
1 | CCc1nc(N)nc(N)c1-c1ccc(Cl)cc1 [Pyrimethamine, 5-(4-chlorophenyl)-6-ethylpyrimidine-2,4-diamine] | 24.2 | 3.82 | 7.5 | 28500 | 97.6 |  |  | EC50 ([1]; Trypanosoma cruzi, TULAHUEN, Fibroblast): 3.8 µM; EC50 (T. brucei): 17 µM
2 | O=C(Cn1ccnc1[N+](=O)[O-])NCc1ccccc1 [Benznidazole] |  | 0.65 | >40 | > 25000 |  | some attenuation of parasitemia |  | EC50 [1, 7]: 0.6 µM
3 | CN1CCCC1CCOC(C)(c1ccccc1)c1ccc(Cl)cc1 (centres unmarked) [Clemastine, 2-{2-[1-(4-chlorophenyl)-1-phenylethoxy]ethyl}-1-methylpyrrolidine] |  |  |  |  | 93.2 | no differences compared to the vehicle treated mice |  | % of normal growth (T. cruzi amastigotes): 74%
4 | Oc1ncnc2[nH]ncc12 [Allopurinol] |  | 2.8 |  | > 50000 |  | slight effects | >17.9 | 
5 | Nc1nc(N)c2nc(-c3ccccc3)c(N)nc2n1 [Triamterene, 6-phenylpteridine-2,4,7-triamine] | 17.3 | 1.66 |  | 23000 | 72.7 |  | 11.4 | EC50 ([1]; Trypanosoma cruzi, TULAHUEN, Fibroblast, Table S2, amastigotes): 18.9 µM; CC50 (3T3 fibroblast cells; [6]): 14.8 µM; activity against T. brucei (T. brucei; no reference given): 48 µM
6 | Clc1ccc(C(OCCN2CCCCC2)c2ccccc2)cc1 (centres unmarked) [Cloperastine, 1-{2-[(4-chlorophenyl)(phenyl)methoxy]ethyl}piperidine] | 1.2 | 5.8 | 3.8 | 21400 | 100 |  |  | EC50 [1, 7]: 5.6 µM; % of normal growth (T. cruzi amastigotes): 79%
7 | CC[C@@H]([C@H](C)O)n1ncn(-c2ccc(N3CCN(c4ccc(OC[C@@H]5CO[C@@](Cn6cncn6)(c6ccc(F)cc6F)C5)cc4)CC3)cc2)c1=O [Posaconazole] |  |  |  |  |  | some attenuation of parasitemia |  | 
8 | CCOC(=O)C1=C(COCCN)NC(C)=C(C(=O)OC)C1c1ccccc1Cl.O=S(=O)(O)c1ccccc1 (centres unmarked) [Amlodipine, 3-ethyl 5-methyl 2-[(2-aminoethoxy)methyl]-4-(2-chlorophenyl)-6-methyl-1,4-dihydropyridine-3,5-dicarboxylate; benzenesulfonic acid] | 13.3 | 1.1 |  |  | 100 | no differences compared to the vehicle treated mice; also recorded: slight effects | 11.8 | CC50 (in vitro; Mammalian cell CC50 (nM)): 13000 nM
